The data set deals with primary human intestinal epithelial monolayers. The data set is described as follows: Paracellular permeability measurement across primary organoid derived monolayers (bi-layer chips vs static inserts). The format is in vitro ADME. As to conditions: apical to basal, 5 days, p-value=0.0029. On the procedure: The apparent permeability coefficient for a 4.4 kDa, tetramethylrhodamine (TRITC) labeled dextran (cat no. T1037, Sigma-Aldrich) was determined by measuring transport across the Caco-2 cell monolayer. TEER values of cell monolayers were measured prior to the permeability assay and monolayers with TEER values below 165Ω×cm^2 were not used. For control Transwell cultures, 300 μL of 500 μM dextran in cell culture medium was applied to the apical compartment. 100 μL was immediately sampled from the apical compartment, transferred to a black, polystyrene, 96 well plate and stored in a 4° C. fridge. Transwells were maintained in a humidified, 37° C.+5% CO2 incubator. 100 μL aliquots were sampled from the basolateral compartment every 30 minutes over 3 hours and 100 μL of fresh medium preheated to 37° C. was added to replace the aliquoted volume. The fluorescence intensity of the collected basolateral samples was measured at 557 nm and 576 nm […] wavelengths, respectively. The actual dextran concentration was determined via a calibration curve. The apparent permeability coefficient was calculated as specified. […] The apparent permeability coefficient for Lucifer Yellow (cat no. L0259, Sigma-Aldrich) across primary organoid derived monolayers on static inserts and bi-layer chips was determined as described above. […]

Consider Lucifer Yellow, for which the “apparent permeability, change between 5-day static and fluidic device models” value was “significant increase”.

These data come from patent US11351538B2, “Fluidic device and method of assembling same” (Northeastern University, priority 2017, dated 2022).
